# Source: patent US6713504B2, “Antifungal molecule 2-(3,4-dimethyl-2,5-dihydro-1H-pyrrol-2-yl)-1-methylethyl pentanoate” (Council of Scientific & Industrial Research, priority 2002, dated 2004)
# What was measured:
# A. fumigatus = test: Disc diffusion assay; assay type: cell-based; conditions: concentration developing zone of inhibition of 6.0-mm diameter
# Protocol: (§1) Pathogenic strains of fungi were obtained from the Mycology Department of Vallabhbhai Patel Chest Institute, Delhi. All the strains were grown on Sabouraud dextrose agar at 37° C. The conidia form these cultures were harvested and suspended in Sabouraud maltose broth. The number of conidia was counted using haemocytometer and their number in the suspension was adjusted to as per need of the experiment.
# (§2) The disc diffusion test was performed as per described in the section of details of invention. Amphotericin B 1.25 μg/disc was used in assay as positive control standard drug. Additional discs impregnated with equivalent amount of solvent were also used in the assay as negative controls (FIG. 5).
# The potency of the compound was determined with the help of standard curve constructed using amphotericin B as standard drug against A. fumigatus. Standard curve was prepared according to method given in the Indian Pharmacopoeia. The corrected values of diameter of zone of inhibition along with lowest and highest values were determined. These values were plotted on semilog paper to prepare standard curve. The value of diameter of zone of inhibition obtained for compound was put into the standard curve and corresponding dose producing the effect equivalent to amphotericin B was determined to find out the potency of the compound (FIG. 6).
# A. fumigatus infection = test: In vivo efficacy (survival) in mice model of aspergillosis; parameters: species or system Balb/C mice; conditions: 7 doses
# Protocol: The mice model of aspergillosis described by Dixon et al (1989), was used to study the effects of compound on in vivo infection of A. fumigatus.
# The animals were housed in the micro-barrier cages on sterile bedding and fed ad libitum water and food. The mice were divided into 6 groups and each group contained 8-10 animals. The mice were infected experimentally with A. fumigatus. Three days prior to infection with conidia, mice were injected subcutaneously with 3 doses (250.0 mg/kg/day) of cortisone acetate in 400.0 μl of PBS. On the infection day, each mouse received 2×10^7 conidia by nasal instillation of a single droplet of conidial suspension.
# A. fumigatus (190/96) isolate was grown on Sabouraud dextrose agar plates at 37° C. for 4 days. The conidia were collected from the culture plates using PBS (pH 7.2) containing 0.05% Tween 80 (Sigma Chemicals) and the suspension was filtered through sterile glass wool. The conidia were pelleted by centrifugation at 2000 rpm and re-suspended in PBS, pH 7.2. The number of conidia was counted and adjusted to 1×10^8 conidia/ml. The viability of the conidia was determined by plating the dilutions of suspensions on Sabouraud dextrose agar.
# The purified compound (metelatropinyl ester) isolated from the D. metel was administered orally in the concentration ranging from 0.0, 25.0 50.0 100.0 200.0 and 400.0 mg/kg body weight to the mice infected experimentally with A. fumigatus.
# The dosing of the animals (cortisone treated and challenged) with compound in 6 different groups was initiated within 30 min after challenge with A. fumigatus conidia.
# Group I: The mice were treated orally with 7 doses of 25.0 mg/kg/day of the compound.
# Group II: The animals infected with A. fumigatus conidia were given 50.0 mg/kg/day of the compound for 7 days orally.
# Group III: The animals in this group were given 7 oral doses of 100.0 mg/kg/day of the compound.
# Group IV: In this group of animals, 7 oral doses of the compound (200.0 mg/kg/day) were given.
# Group V: The animals of this group were treated with 7 doses of 400.0 mg/kg/day orally over a period of 7 days.
# Group VI: The animals of this group acted as control and were treated orally with 7 doses of 400 μl PBS containing solvent.
# The animals were housed in properly labeled cages and kept under close watch for weight loss and the mortality. The survival rate over a period of 10 days was calculated and the fungal burden in survivors determined (Clemons and Stevens, 1994).
# The Balb/C mice of 6-8 weak of age of either sex, weighing 15-20 g, were housed in micro-barrier cages on sterile bedding and fed ad libitum water and food. The animals were divided into 6 groups and each group contained 8-10 mice.
# Aspergillus species = test: Spore germination inhibition assay; assay type: cell-based; conditions: 10 hrs incubation
# Protocol: as §1
# The modified spore germination inhibition assay was performed as described earlier (Sureder P. and Janaiah C., 1987, Ind. J. Expt. Biol., 25, 233-234). The fungal species were grown on Sabouraud dextrose agar plates at 37° C. for 96 h. […] The conidia were counted and their number in the suspension was adjusted to 1×10^4 per ml. The standard drug Amphotericin B and test samples were initially dissolved in minimal quantity of dimethylsulfoxide (DMSO) and then diluted with Sabouraud dextrose medium. […] The number of germinated and non-germinated spores was counted. The percent spore germination inhibition (PSGI) was calculated using following formula [formula]
# Antifungal Activity of Pure Compound by Spore Germination Inhibition Assay The spore germination inhibition assay was performed to evaluate the activity of the compound. […] The number of germinated and non-germinated spores was counted and the percent spore germination inhibition (PSGI) was calculated. […]
# A. flavus = test: Disc diffusion assay; assay type: cell-based; conditions: concentration developing zone of inhibition of 6.0-mm diameter
# Protocol: as §1, §2
# A. niger = test: Disc diffusion assay; assay type: cell-based
# Protocol: as §1, §2
structure (smiles),measurement,setting,value
"CCCCC(=O)OC(C)CC1NCC(C)=C1C (centres unmarked) [PC-1, 2-(3,4-dimethyl-2,5-dihydro-1H-pyrrol-2-yl)-1-methylethyl pentanoate]",MIC by disc diffusion assay,A. fumigatus,5 μg/disc
same,MIC by disc diffusion assay,A. fumigatus; listed as antifungal lead molecule,5.0 μg/disc
same,survived up to 10th day,"A. fumigatus infection; 25.0 mg/kg body weight oral, 1 out of 10",10%
same,survived up to 10th day,"A. fumigatus infection; 50.0 mg/kg body weight oral, 1 out of 8",12.5%
same,survived up to 10th day,"A. fumigatus infection; 100.0 mg/kg body weight oral, 3 out of 9",33.3%
same,survived up to 10th day,"A. fumigatus infection; 200.0 mg/kg body weight oral, 4 out of 9",44.4%
same,survived up to 10th day,"A. fumigatus infection; 400.0 mg/kg body weight oral, 8 out of 10",80%
same,MIC by percent spore germination inhibition,Aspergillus species,87.5 µg/mL
same,MIC by disc diffusion assay,A. flavus,5 μg/disc
same,zone of inhibition at 20 µg/disc,"A. niger; Aspergillus niger, 20.0 μg/disc, 48 hrs, read-out: Diameter of zone of inhibition",9.4 mm
same,MIC by disc diffusion assay,A. niger; concentration developing zone of inhibition of 6.0-mm diameter,5 μg/disc
